From patent US20120101284A1, “METHOD FOR SCREENING INHIBITOR FOR INHIBITING INTERACTION BETWEEN BETA-AMYLOID PEPTIDE AND VEGF AND INHIBITOR SEARCHED BY THE SAME” (INNOPHARMASCREEN INC., priority 2009, published 2012)

Key:
[1] = tested on: SH-SY5Y cell; assay: Inhibition of cytotoxicity of beta-amyloid by screened material (MTT assay); type: cell-based; conditions: standard of 10 μM beta-amyloid, at more than 5 μM, 24 hours
Experimental: The SH-SY5Y cells were added to 96-well tissue culture plate to be the cell concentration of 1×10^4 per well.

[2] = tested on: SH-SY5Y cell
Text: PC12 Cell (Korean Cell Line Bank, Seoul, Korea) was maintained in the mixed solution of RPMI1640 (Welgene, Daegu, Korea) containing 1× Antibiotic-Antimycotic (GIBCO, N.Y., USA) and 10% FBS (Fetal Bovine Serum) (Welgene, Daegu, Korea). SH-SY5Y cell (Korean Cell Line Bank, Seoul, Korea) was maintained in the mixed solution of DMED/F12 (Welgene, Daegu, Korea) containing 1× Antibiotic-Antimycotic (GIBCO, N.Y., USA) and 10% FBS (Fetal Bovine Serum) (Welgene, Daegu, Korea). The PC12 and SH-SY5Y culture cells were maintained under the conditions of 100% humidity and 37° C. in the environment for supplying gas components with further 5% carbon dioxide.
It was performed according to a MTT [(3-(4,5-dimethylthiazol-2yl-2,5-diphenyl-2H-tetrazoilum bromide] experiment protocol. MTT was dissolved in PBS to be 5 mg/ml and then stored at 4° C. to use. After completing the reaction, 10 μl of 5 mg/ml MTT solution was added to 100 culture mixed solution of each well and then reacted for 3 hours. The supernatant of each well was discarded, and then a chromophoric reactant (Formazancrystal) was dissolved in 100 μl of DMSO; and then an absorbance was measured using ELISA reader (595 nm).
The PC12 cells were added to each of wells of Poly-D-lysine-coated 96-well tissue culture plate (Corning, Mass., USA) to be the cell concentration of 2×10^4 per well. […]

[3] = molecular target: T1, binding between the beta-amyloid 1-42 peptide and VEGF165 (Homo sapiens, UniProt P15692); assay: Protein chip screening of inhibitors of the binding between beta-amyloid and VEGF165; conditions: first screening, VEGF165 50 μg/ml, single concentration
T1 construct: purchased R&D System, Inc. (VEGF165); Bachem AG (beta-amyloid)
T1 sequence (P15692 27-191 isoform P15692-4): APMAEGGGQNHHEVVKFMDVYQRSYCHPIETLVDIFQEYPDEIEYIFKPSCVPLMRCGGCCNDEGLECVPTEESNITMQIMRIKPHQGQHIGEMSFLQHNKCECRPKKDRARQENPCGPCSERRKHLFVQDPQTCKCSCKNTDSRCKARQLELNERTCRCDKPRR
Experimental: ProteoChip™ (Proteogen Inc., Seoul, Korea) was used as a substrate to fix a protein. A sheet paper was adhered on the substrate to prepare Well-Chip. A beta-amyloid (Bachem AG, Bubendorf, Switzerland) was diluted with a phosphate-buffered saline (PBS) containing 30% glycerol solution to be 50 μg/ml; then added to each well; reacted at 30° C. in a humidity incubator, overnight; the beta-amyloid remained after combining was washed with a phosphate-buffered saline containing 0.05% tween-20 (0.05% PBST); dried with a nitrogen gas; and then a high-speed-high throughput screening was performed.
A mixed solution was prepared by mixing VEGF165 (50 μg/ml) and 130 compounds (50 μM) derived from a natural material obtained in Example 1 in order to experiment the inhibition of the binding between the beta-amyloid and VEGF165. […]
The beta-amyloid-tagged protein chip prepared in Example 2 was blocked with 3% BSA for 2 hours; then washed with 0.05% PBST twice; and then dried with a nitrogen gas. […] It was washed with the washing solution; then dried using a nitrogen gas; a primary antibody was added to each of wells; then reacted at 30° C. in a humidity incubator for 30 minutes; washed with the washing solution; and then dried with the nitrogen gas to measure an inhibition ability of library by analyzing the binding degree with the relative fluorescence intensity using a fluorescence laser scanner. […]

## NCCCS(=O)(=O)O [Alzhemed™]
[1]
  survival rate of cell increased: about 30%

## beta-amyloid 1-42: forward-synthesized beta-amyloid 1-42 peptide
[2]
  survival rate of cell: decreased in proportion as the concentration increase

## heparin
[3]
  inhibition of the interaction between beta-amyloid 1-42 peptide and VEGF165 (relative fluorescence intensity): inhibited
